In test [1] the target is HsClpP (Homo sapiens, UniProt Q16740). In words: HsClpP enzyme hydrolysis of short peptide substrate AC-WLA-AMC. The settings on record: for Regulatory efficacy 1 μM / Regulatory efficacy 10 μM: promoting hydrolysis of short peptide substrate by HsClpP, relative to blank control.
Protocol: This study evaluated the regulatory activity of the compounds on HsClpP by examining the hydrolysis effects of HsClpP protein on the AC-WLA-AMC substrate . […] The small molecules and the HsClpP protein solution were added to a flat-bottomed black 96-well plate, with three replicate wells for each group. […] DMSO was used as a negative control instead of small molecules. The multiple of readings at different concentrations against the readings of DMSO group was recorded as an index for evaluation of hydrolysis activity. . . . GraphPad Prism was used to plot the obtained multiple values and calculate the EC50 values.
Test [2] has as its system HCT116. In words: CCK-8 in vitro anti-tumor proliferation assay. In kind it is cell-based. The settings on record: Homo sapiens, HCT-116, 72 hours. The protocol: (§1) Example 3: In vitro anti-tumor proliferation assay of the compounds. The purpose of this experiment was to use CCK-8 to detect the in vitro inhibitory activity of the compounds of the present invention against the proliferation of tumor cells. The main reagents, such as RPMI-1640, DMEM high-glucose culture medium, fetal bovine serum, trypsin, etc., were purchased from Gibco BRL. CCK8 and DMSO were products of Sigma. For in vitro experiment, the test compounds were prepared as 10 mM stock solutions in DMSO and stored at −20° C. in the refrigerator in the dark for later use, then diluted to desired concentration with complete culture medium before use. The human lung cancer cells, colon cancer cells, breast cancer cells, glioblastoma cells, human myelomonocytic leukemia cells, and human Burkitt's lymphoma cells used in this experiment were all purchased from the American ATCC company and preserved in laboratory of the inventors. All the above cell lines were cultured in RPMI-1640 complete medium or DMEM complete medium containing 10% fetal bovine serum, 100 U/mL penicillin, and 100 μg/mL streptomycin under 5% carbon dioxide, 37° C. conditions. […] The previous culture medium was discarded, fresh culture medium was added to resuspend the cells, and then the cells were counted. According to the growth rate of different cells, the cell seeding concentration was determined, generally being 3000-5000 cells/well. After determining the seeding concentration, the cell suspension was diluted to desired concentrations with fresh culture medium, and then added to a 96-well plate with 100 μL per well, and 200 μL of PBS was added to the edge wells to prevent evaporation of the culture medium. On the second day, drug treatment was performed. First, the compounds were diluted into a series of gradients with culture medium, and then the drug solution was added to the 96-well plate, with 3 parallel wells for each gradient. Each plate set a blank control group, and ONC201 was used as the positive control group.

For test [3], the system named is SW620. The experiment in a line: CCK-8 in vitro anti-tumor proliferation assay. The settings on record: Homo sapiens, SW-620; Table 4; 72 hours; read-out: IC50 ( M) SW620. In kind it is cell-based. As to the method: as §1
The test system of test [4] is HCT115. In words: CCK-8 in vitro anti-tumor proliferation assay. Particulars: Homo sapiens; Table 4; 72 hours. The class given is cell-based. As to the method:
as §1

Test [5] deals with HT29. In words: CCK-8 in vitro anti-tumor proliferation assay. The class given is cell-based. Particulars: Homo sapiens, HT-29; Table 4; 72 hours. As to the method: as §1
Test [6] has as its system SW480. In words: CCK-8 in vitro anti-tumor proliferation assay. The class given is cell-based. The settings on record: Homo sapiens, Table 4, 72 hours. As to the method: as §1
Test [7] relates to DLD1. In words: CCK-8 in vitro anti-tumor proliferation assay. Particulars: Homo sapiens, DLD-1; Table 4; 72 hours; read-out: IC50 ( M) DLD1. In kind it is cell-based. As to the method:
as §1

[8] abbreviates: Table 5, HCT116, read-out: IC50.
[9] abbreviates: Table 4, read-out: IC50 ( M) HCT116.

Read-outs that look alike come from different tables or passages of the source.

Chain of HsClpP (Q16740 57-277): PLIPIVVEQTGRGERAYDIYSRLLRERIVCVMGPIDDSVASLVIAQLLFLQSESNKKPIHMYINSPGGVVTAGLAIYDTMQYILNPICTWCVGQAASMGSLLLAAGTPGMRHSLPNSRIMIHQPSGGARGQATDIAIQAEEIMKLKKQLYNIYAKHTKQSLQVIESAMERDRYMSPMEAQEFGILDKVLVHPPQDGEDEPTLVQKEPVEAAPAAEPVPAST

A word on the IC50: it is the concentration at which inhibition is half-maximal. As for `CN1CCn2c1nc(=O)c1c2CCN(Cc2ccccc2)C1` [Compound 2, 7-benzyl-3-methyl-2,3,6,7,8,9-hexahydroimidazo[1,2-a]pyrido[3,4-e]pyrimidin-5(1H)-one], in test [1], the “Regulatory efficacy 1 μM” value is “+ (+ indicating that the increased efficacy is less than 50% of the blank control group)” and the “Regulatory efficacy 10 μM” value is on record as “+ (+ indicating that the increased efficacy is less than 50% of the blank control group)”. The IC50 in test [2] (setting [8]) is more than 1e-05 M.

For the molecule `O=c1nc2n(c3c1CN(Cc1ccccc1)CC3)CCN2CC1CC1` [Compound 5, 7-benzyl-3-cyclopropylmethyl-2,3,6,7,8,9-hexahydroimidazo[1,2-a]pyrido[3,4-e]pyrimidin-5(1H)-one], in test [1], the “Regulatory efficacy 1 μM” value is “+ (+ indicating that the increased efficacy is less than 50% of the blank control group)” and the “Regulatory efficacy 10 μM” value was “+ +”. Also, in test [2] (setting [8]), the half-maximal inhibitory concentration (IC50) was more than 1e-05 M.

As to `O=c1nc2n(c3c1CN(Cc1ccccc1)CC3)CCN2CC1CCCCC1` [Compound 6, 7-benzyl-3-cyclohexylmethyl-2,3,6,7,8,9-hexahydroimidazo[1,2-a]pyrido[3,4-e]pyrimidin-5(1H)-one], in test [1], the “Regulatory efficacy 1 μM” value is “+ +” and the “Regulatory efficacy 10 μM” value is on record as “+ +”. For the same molecule, the IC50 in test [2] (setting [8]) stood at 2.5e-06 M.

Take `O=c1nc2n(c3c1CN(Cc1ccccc1)CC3)CCN2Cc1ccccc1` [Compound 7, 7-benzyl-3-benzyl-2,3,6,7,8,9-hexahydroimidazo[1,2-a]pyrido[3,4-e]pyrimidin-5(1H)-one]: in test [1], the “Regulatory efficacy 1 μM” value was “+ +” and the “Regulatory efficacy 10 μM” value is “+ +”. The half-maximal inhibitory concentration (IC50) in test [2] (setting [8]) was 5e-07 M.

Take `O=c1nc2n(c3c1CN(Cc1ccccc1)CC3)CCN2Cc1ccc2ccccc2c1` [Compound 8, 7-benzyl-3-(2-naphthylmethyl)-2,3,6,7,8,9-hexahydroimidazo[1,2-a]pyrido[3,4-e]pyrimidin-5(1H)-one]: in test [1], the “Regulatory efficacy 1 μM” value is “+ +” and the “Regulatory efficacy 10 μM” value is listed as “+ +”. The half-inhibitory concentration (IC50) in test [2] (setting [8]) was 3e-07 M.

Turning to `Cc1cccc(CN2CCn3c2nc(=O)c2c3CCN(Cc3ccccc3)C2)c1` [Compound 11, 7-benzyl-3-(3-methylbenzyl)-2,3,6,7,8,9-hexahydroimidazo[1,2-a]pyrido[3,4-e]pyrimidin-5(1H)-one], in test [1], the “Regulatory efficacy 1 μM” value was “+ +” and the “Regulatory efficacy 10 μM” value was “+ +”. For the same molecule, in test [2] (setting [8]), the IC50 came out at 3e-07 M.

Take `Cc1ccc(CN2CCn3c2nc(=O)c2c3CCN(Cc3ccccc3)C2)cc1` [Compound 12, 7-benzyl-3-(4-methylbenzyl)-2,3,6,7,8,9-hexahydroimidazo[1,2-a]pyrido[3,4-e]pyrimidin-5(1H)-one]: in test [1], the “Regulatory efficacy 1 μM” value is recorded as “+ +” and the “Regulatory efficacy 10 μM” value was “+ +”. Further, in test [2] (setting [8]), the IC50 was 2e-07 M.

On to `COc1ccccc1CN1CCn2c1nc(=O)c1c2CCN(Cc2ccccc2)C1` [Compound 13, 7-benzyl-3-(2-methoxybenzyl)-2,3,6,7,8,9-hexahydroimidazo[1,2-a]pyrido[3,4-e]pyrimidin-5(1H)-one], for which, in test [1], the “Regulatory efficacy 1 μM” value is reported as “+ +” and the “Regulatory efficacy 10 μM” value is “+ +”. Also, the concentration for half-maximal inhibition (IC50) in test [2] (setting [8]) stood at 1.3e-06 M.

As to `COc1ccc(CN2CCn3c2nc(=O)c2c3CCN(Cc3ccccc3)C2)cc1` [Compound 14, 7-benzyl-3-(4-methoxybenzyl)-2,3,6,7,8,9-hexahydroimidazo[1,2-a]pyrido[3,4-e]pyrimidin-5(1H)-one], in test [1], the “Regulatory efficacy 1 μM” value is on record as “+ +” and the “Regulatory efficacy 10 μM” value was “+ +”. Further, in test [2] (setting [8]), the IC50 was 1.2e-06 M.

As usually defined, the EC50 is the concentration at which the effect is half-maximal. A low value points to higher potency in that assay. As for `O=c1nc2n(c3c1CN(Cc1ccccc1)CC3)CCN2Cc1ccc(F)cc1` [Compound 15, 7-benzyl-3-(4-fluorobenzyl)-2,3,6,7,8,9-hexahydroimidazo[1,2-a]pyrido[3,4-e]pyrimidin-5(1H)-one], the 50% effective concentration (EC50) in test [1] worked out at 100 nM. Further, the “Regulatory efficacy 1 μM” value in test [1] is given as “+ +”. The “Regulatory efficacy 10 μM” value in test [1] is reported as “+ +”. Besides, the IC50 in test [3] was determined as 1.9e-07 M; in test [4], 200 nM; in test [2] (setting [9]), 8e-08 M; in test [2] (setting [8]) it was 8e-08 M; in test [5], 400 nM; in test [6] it was 170 nM. Besides, in test [7], the IC50 is 9e-08 M.

Consider `O=c1nc2n(c3c1CN(Cc1ccccc1)CC3)CCN2Cc1ccc(Cl)cc1` [Compound 16, 7-benzyl-3-(4-chlorobenzyl)-2,3,6,7,8,9-hexahydroimidazo[1,2-a]pyrido[3,4-e]pyrimidin-5(1H)-one], for which the “Regulatory efficacy 1 μM” value in test [1] is reported as “+ +”. The “Regulatory efficacy 10 μM” value in test [1] is reported as “+ +”. For the same molecule, the concentration for half-maximal inhibition (IC50) is 1.7e-07 M in test [3]; 250 nM in test [4]; 8e-08 M in test [2] (setting [9]); 8e-08 M in test [2] (setting [8]); 70 nM in test [5]; 100 nM in test [6]. Moreover, the IC50 in test [7] turned out to be 1e-07 M.

With `O=c1nc2n(c3c1CN(Cc1ccccc1)CC3)CCN2Cc1ccc(Br)cc1` [Compound 17, 7-benzyl-3-(4-bromobenzyl)-2,3,6,7,8,9-hexahydroimidazo[1,2-a]pyrido[3,4-e]pyrimidin-5(1H)-one], in test [1], the “Regulatory efficacy 1 μM” value is reported as “+ +” and the “Regulatory efficacy 10 μM” value is listed as “+ +”. For the same molecule, the IC50 in test [2] (setting [8]) stood at 5e-07 M.

As for `O=c1nc2n(c3c1CN(Cc1ccccc1)CC3)CCN2Cc1ccc(Br)c(F)c1` [Compound 22, 7-benzyl-3-(4-bromo-3-fluorobenzyl)-2,3,6,7,8,9-hexahydroimidazo[1,2-a]pyrido[3,4-e]pyrimidin-5 (1H)-one], in test [1], the “Regulatory efficacy 1 μM” value is reported as “+ +” and the “Regulatory efficacy 10 μM” value is reported as “+ +”. Moreover, the half-inhibitory concentration (IC50) in test [2] (setting [8]) was determined as 8e-08 M.

For `O=c1nc2n(c3c1CN(Cc1ccccc1)CC3)CCN2Cc1ccc(Cl)c(Cl)c1` [Compound 26, 7-benzyl-3-(3,4-dichlorobenzyl)-2,3,6,7,8,9-hexahydroimidazo[1,2-a]pyrido[3,4-e]pyrimidin-5(1H)-one], in test [1], the “Regulatory efficacy 1 μM” value is “+ +” and the “Regulatory efficacy 10 μM” value is recorded as “+ +”. In addition, the 50% inhibitory concentration (IC50) in test [2] (setting [8]) stood at 3e-08 M.

Consider `CCN1CCc2c(c(=O)nc3n2CCN3Cc2ccccc2C)C1` [Compound 28, 7-ethyl-3-(2-methylbenzyl)-2,3,6,7,8,9-hexahydroimidazo[1,2-a]pyrido[3,4-e]pyrimidin-5(1H)-one], for which, in test [1], the “Regulatory efficacy 1 μM” value is given as “+ (+ indicating that the increased efficacy is less than 50% of the blank control group)” and the “Regulatory efficacy 10 μM” value was “+ (+ indicating that the increased efficacy is less than 50% of the blank control group)”. Further, the half-inhibitory concentration (IC50) in test [2] (setting [8]) is more than 1e-05 M.

Consider `Cc1cccc(CN2CCc3c(c(=O)nc4n3CCN4Cc3ccccc3C)C2)c1` [Compound 32, 3-(2-methylbenzyl)-7-(3-methylbenzyl)-2,3,6,7,8,9-hexahydroimidazo[1,2-a]pyrido[3,4-e]pyrimidin-5(1H)-one], for which, in test [1], the “Regulatory efficacy 1 μM” value was “+ +” and the “Regulatory efficacy 10 μM” value is recorded as “+ +”. Also, in test [2] (setting [8]), the 50% inhibitory concentration (IC50) was found to be 1.5e-06 M.

Turning to `Cc1ccccc1CN1CCn2c1nc(=O)c1c2CCN(Cc2cccc(C#N)c2)C1` [Compound 35, 3-((3-(2-methylbenzyl)-5-oxo-2,3,6,7,8,9-hexahydroimidazo[1,2-a]pyrido[3,4-e]pyrimidin-7(6H)-yl)methyl)benzonitrile], in test [1], the “Regulatory efficacy 1 μM” value was “+ +” and the “Regulatory efficacy 10 μM” value is “+ +”. Moreover, in test [2] (setting [8]), the half-maximal inhibitory concentration (IC50) is 5e-07 M.

`Cc1ccccc1CN1CCn2c1nc(=O)c1c2CCN(C(=O)c2ccccc2)C1` [Compound 39, 7-benzoyl-3-(2-methylbenzyl)-2,3,6,7,8,9-hexahydroimidazo[1,2-a]pyrido[3,4-e]pyrimidin-5(1H)-one]: in test [1], the “Regulatory efficacy 1 μM” value is listed as “+ (+ indicating that the increased efficacy is less than 50% of the blank control group)” and the “Regulatory efficacy 10 μM” value was “+ (+ indicating that the increased efficacy is less than 50% of the blank control group)”. Moreover, in test [2] (setting [8]), the IC50 is more than 1e-05 M.
